Test results: ChEMBL document CHEMBL1201862, “PubChem BioAssay data set” (2004)
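Exposure lasted 48 hours, with cells grown in 96-well plates and compounds tested at five concentrations. At the GI50, growth is halved.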 Calls of active or inactive are those of the source. Rule as the data show it: active = GI50 up to about 1.1 µM and inactive = higher.

How the values were obtained:
Assay in all cases: inhibition of tumour cell growth, NCI panel, 48 h
[1] = tested on: OVCAR-4
[2] = tested on: SF-268
[3] = tested on: UO-31
[4] = tested on: SK-MEL-5
[5] = tested on: EKVX
[6] = tested on: T47D
[7] = tested on: NCI-H226
[8] = tested on: M14
[9] = tested on: NCI-H23
[10] = tested on: COLO 205
[11] = tested on: UACC-62
[12] = tested on: K562
[13] = tested on: NCI/ADR-RES
[14] = tested on: Malme-3M
[15] = tested on: OVCAR-5
[16] = tested on: IGROV-1
[17] = tested on: MCF7
[18] = tested on: SK-MEL-28
[19] = tested on: HT-29
[20] = tested on: BT-549
[21] = tested on: LOX IMVI
[22] = tested on: OVCAR-8
[23] = tested on: HOP-92
[24] = tested on: SNB-75
[25] = tested on: 786-0
[26] = tested on: CAKI-1
[27] = tested on: MOLT-4
[28] = tested on: NCI-H460
[29] = tested on: HCC 2998
[30] = tested on: ACHN
[31] = tested on: A549
[32] = tested on: SR
[33] = tested on: MDA-MB-231
[34] = tested on: RXF 393
[35] = tested on: SF-539
[36] = tested on: HCT-15
[37] = tested on: CCRF-CEM
[38] = tested on: TK-10
[39] = tested on: NCI-H522
[40] = tested on: U-251
[41] = tested on: Hs-578T
[42] = tested on: OVCAR-3
[43] = tested on: SN12C
[44] = tested on: SK-MEL-2
[45] = tested on: KM12
[46] = tested on: SF-295
[47] = tested on: PC-3
[48] = tested on: MDA-MB-435
[49] = tested on: HOP-62
[50] = tested on: HCT-116
[51] = tested on: SNB-19
[52] = tested on: DU-145
[53] = tested on: RPMI-8226
[54] = tested on: A498
[55] = tested on: SW-620
[56] = tested on: HL-60
[57] = tested on: UACC-257
[58] = tested on: MDA-N
[59] = tested on: SK-OV-3

COc1c2occc2c(N)c2ccc(=O)oc12
GI50 [1]: > 100 µM (inactive)
GI50 [2]: > 100 µM (inactive)
GI50 [3]: > 100 µM (inactive)
GI50 [4]: 35 µM (inactive)
GI50 [5]: 51.9 µM (inactive)
GI50 [6]: > 100 µM (inactive)
GI50 [7]: 29.5 µM (inactive)
GI50 [8]: > 100 µM (inactive)
GI50 [9]: > 100 µM (inactive)
GI50 [10]: > 100 µM (inactive)
GI50 [11]: 41.6 µM (inactive)
GI50 [12]: > 100 µM (inactive)
GI50 [13]: > 100 µM (inactive)
GI50 [14]: > 100 µM (inactive)
GI50 [15]: > 100 µM (inactive)
GI50 [16]: > 100 µM (inactive)
GI50 [17]: > 100 µM (inactive)
GI50 [18]: > 100 µM (inactive)
GI50 [19]: > 100 µM (inactive)
GI50 [20]: > 100 µM (inactive)
GI50 [21]: > 100 µM (inactive)
GI50 [22]: > 100 µM (inactive)
GI50 [23]: > 100 µM (inactive)
GI50 [24]: 17.2 µM (inactive)
GI50 [25]: > 100 µM (inactive)
GI50 [26]: > 100 µM (inactive)
GI50 [27]: > 100 µM (inactive)
GI50 [28]: > 100 µM (inactive)
GI50 [29]: > 100 µM (inactive)
GI50 [30]: > 100 µM (inactive)
GI50 [31]: > 100 µM (inactive)
GI50 [32]: > 100 µM (inactive)
GI50 [33]: > 100 µM (inactive)
GI50 [34]: 15.3 µM (inactive)
GI50 [35]: 75.2 µM (inactive)
GI50 [36]: > 100 µM
GI50 [37]: 93.5 µM (inactive)
GI50 [38]: > 100 µM (inactive)
GI50 [39]: 75 µM (inactive)
GI50 [40]: > 100 µM (inactive)
GI50 [41]: > 100 µM (inactive)
GI50 [42]: > 100 µM (inactive)
GI50 [43]: > 100 µM (inactive)
GI50 [44]: > 100 µM (inactive)
GI50 [45]: > 100 µM (inactive)
GI50 [46]: > 100 µM (inactive)
GI50 [47]: > 100 µM (inactive)
GI50 [48]: > 100 µM (inactive)
GI50 [49]: > 100 µM (inactive)
GI50 [50]: > 100 µM (inactive)
GI50 [51]: > 100 µM (inactive)
GI50 [52]: > 100 µM (inactive)
GI50 [53]: > 100 µM (inactive)
GI50 [54]: > 100 µM (inactive)
GI50 [55]: > 100 µM (inactive)
GI50 [56]: 49.2 µM (inactive)
GI50 [57]: > 100 µM (inactive)
GI50 [58]: > 100 µM (inactive)

CC1CN=C(Nc2ccccc2)S1 (stereo unspecified)
GI50 [2]: > 100 µM (inactive)
GI50 [3]: 56.8 µM (inactive)
GI50 [4]: > 100 µM (inactive)
GI50 [5]: > 100 µM (inactive)
GI50 [6]: > 100 µM (inactive)
GI50 [7]: > 100 µM (inactive)
GI50 [8]: > 100 µM (inactive)
GI50 [9]: > 100 µM (inactive)
GI50 [10]: > 100 µM (inactive)
GI50 [11]: > 100 µM (inactive)
GI50 [12]: > 100 µM (inactive)
GI50 [13]: > 100 µM (inactive)
GI50 [14]: > 100 µM (inactive)
GI50 [15]: > 100 µM (inactive)
GI50 [16]: > 100 µM (inactive)
GI50 [17]: > 100 µM (inactive)
GI50 [18]: > 100 µM (inactive)
GI50 [19]: > 100 µM (inactive)
GI50 [20]: > 100 µM (inactive)
GI50 [21]: > 100 µM (inactive)
GI50 [22]: > 100 µM (inactive)
GI50 [23]: > 100 µM (inactive)
GI50 [24]: > 100 µM (inactive)
GI50 [25]: > 100 µM (inactive)
GI50 [26]: > 100 µM (inactive)
GI50 [27]: > 100 µM (inactive)
GI50 [28]: > 100 µM (inactive)
GI50 [29]: > 100 µM (inactive)
GI50 [30]: > 100 µM (inactive)
GI50 [31]: > 100 µM (inactive)
GI50 [32]: > 100 µM (inactive)
GI50 [33]: > 100 µM (inactive)
GI50 [34]: > 100 µM (inactive)
GI50 [35]: > 100 µM (inactive)
GI50 [36]: > 100 µM
GI50 [37]: > 100 µM (inactive)
GI50 [38]: > 100 µM (inactive)
GI50 [39]: > 100 µM (inactive)
GI50 [40]: > 100 µM (inactive)
GI50 [41]: > 100 µM (inactive)
GI50 [42]: > 100 µM (inactive)
GI50 [43]: > 100 µM (inactive)
GI50 [44]: > 100 µM (inactive)
GI50 [45]: > 100 µM (inactive)
GI50 [46]: > 100 µM (inactive)
GI50 [47]: > 100 µM (inactive)
GI50 [59]: > 100 µM (inactive)
GI50 [48]: > 100 µM (inactive)
GI50 [49]: > 100 µM (inactive)
GI50 [50]: > 100 µM (inactive)
GI50 [51]: > 100 µM (inactive)
GI50 [52]: > 100 µM (inactive)
GI50 [53]: > 100 µM (inactive)
GI50 [54]: > 100 µM (inactive)
GI50 [55]: > 100 µM (inactive)
GI50 [56]: > 100 µM (inactive)
GI50 [57]: > 100 µM (inactive)
GI50 [58]: > 100 µM (inactive)
